Data reported in ChEMBL document CHEMBL6103580, “Synthesis and biological evaluation of natural cleistanolate, its enantiomer and analogues” (Eur J Med Chem, 2025).
The source made the active and inactive calls. The rule behind the calls is not given here.

What was measured:
Jurkat = assay: Antiproliferative activity against human Jurkat cells assessed as inhibition of cell growth incubated for 72 hrs by MTT assay; assay type: functional, cell-based
K562 = assay: Antiproliferative activity against human K562 cells assessed as inhibition of cell growth incubated for 72 hrs by MTT assay; assay type: functional, cell-based; conditions: K562, 72 h
[1] = Antiproliferative activity against human MRC5 cells assessed as inhibition of cell growth incubated for 72 hrs by MTT assay; assay type: toxicity, cell-based
MDA-MB-231 = assay: Antiproliferative activity against human MDA-MB-231 cells assessed as inhibition of cell growth incubated for 72 hrs by MTT assay; assay type: functional, cell-based; conditions: MDA-MB-231, 72 h
Raji = assay: Antiproliferative activity against human Raji cells assessed as inhibition of cell growth incubated for 72 hrs by MTT assay; assay type: functional, cell-based
A549 = assay: Antiproliferative activity against human A549 cells assessed as inhibition of cell growth incubated for 72 hrs by MTT assay; assay type: functional, cell-based; conditions: A549, 72 h
MCF7 = assay: Antiproliferative activity against human MCF7 cells assessed as inhibition of cell growth incubated for 72 hrs by MTT assay; assay type: functional, cell-based; conditions: MCF7, 72 h
HeLa = assay: Antiproliferative activity against human HeLa cells assessed as inhibition of cell growth incubated for 72 hrs by MTT assay; assay type: functional, cell-based
HL-60 = assay: Antiproliferative activity against human HL-60 cells assessed as inhibition of cell growth incubated for 72 hrs by MTT assay; assay type: functional, cell-based; conditions: HL-60, 72 h
[2] = Potency index, ratio of cleistanolate IC50 to test compound IC50 for antiproliferative activity against human HeLa cells assessed as inhibition of cell growth incubated for 72 hrs by MTT assay; assay type: functional
Candida tropicalis = assay: Antifungal activity against Candida tropicalis CCY 29-7-62 assessed as reduction in fungal growth incubated for 48 hrs by muller hinton broth microdilution based XTT assay; assay type: functional
Vibrio cholerae = assay: Antibacterial activity against Vibrio cholerae O139 CIRS 245 assessed as reduction in cell viability incubated for 24 hrs by muller hinton broth microdilution based XTT assay; assay type: functional
[3] = molecular target: Cholinesterase (Homo sapiens) (UniProt P06276); assay: Inhibition of human BChE at 100 uM using acetylthiocholine iodide as substrate by DTNB reagent based Ellman spectrophotometric analysis relative to control
Escherichia coli [4] = assay: Antibacterial activity against Escherichia coli ZPM 132 assessed as reduction in cell viability incubated for 24 hrs by muller hinton broth microdilution based XTT assay; assay type: functional
Streptococcus pneumoniae = assay: Antibacterial activity against Streptococcus pneumoniae ZPM 187 assessed as reduction in cell viability incubated for 24 hrs by muller hinton broth microdilution based XTT assay; assay type: functional
Escherichia coli [5] = assay: Antimicrobial activity against Escherichia coli ZPM 132 assessed as reduction in cell viability incubated for 24 hrs by muller hinton broth microdilution based XTT assay; assay type: functional

Chain of Cholinesterase (Homo sapiens) (P06276 whole entry): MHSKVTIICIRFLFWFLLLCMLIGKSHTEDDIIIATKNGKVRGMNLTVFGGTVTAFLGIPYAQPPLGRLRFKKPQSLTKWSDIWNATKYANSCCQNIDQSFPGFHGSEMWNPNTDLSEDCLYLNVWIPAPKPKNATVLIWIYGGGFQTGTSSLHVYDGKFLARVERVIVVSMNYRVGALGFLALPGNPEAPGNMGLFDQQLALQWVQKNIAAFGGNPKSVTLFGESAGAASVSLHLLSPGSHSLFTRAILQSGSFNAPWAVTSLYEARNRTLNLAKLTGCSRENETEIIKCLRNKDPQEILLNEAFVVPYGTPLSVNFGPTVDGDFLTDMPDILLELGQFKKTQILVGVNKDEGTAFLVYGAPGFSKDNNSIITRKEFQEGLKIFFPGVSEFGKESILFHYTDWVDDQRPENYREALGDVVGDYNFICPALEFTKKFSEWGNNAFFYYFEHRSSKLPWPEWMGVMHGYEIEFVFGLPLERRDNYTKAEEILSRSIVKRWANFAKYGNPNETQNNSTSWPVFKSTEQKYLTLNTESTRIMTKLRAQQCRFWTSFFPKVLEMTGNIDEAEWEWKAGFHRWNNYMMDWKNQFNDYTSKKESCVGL

Row | Compound | IC50 (Jurkat) [µM] | IC50 (K562) [µM] | IC50 at 72 h [1] [µM] | IC50 (MDA-MB-231) [µM] | IC50 (Raji) [µM] | IC50 (A549) [µM] | IC50 (MCF7) [µM] | IC50 (HeLa) [µM] | IC50 (HL-60) [µM] | Ratio IC50 [2] | MFC (Candida tropicalis) [µg/mL] | MBC (Vibrio cholerae) [µg/mL] | inhibition [3] | MBC (Escherichia coli [4]) [µg/mL] | MBC (Streptococcus pneumoniae) [µg/mL] | MIC (Escherichia coli [5]) [µg/mL]
1 | CO[C@H]1CC(=O)O[C@H]1[C@H](O)[C@@H](O)COC(=O)c1ccccc1 | 32 | 9.89 | > 100 | 19.9 | 21 | 29.6 | 12.8 | 10.6 | 10.3 | – | – | – | – | – | – | –
2 | O=C1C[C@H]2O[C@@H]3CO[C@@H]3[C@H]2O1 | 10.4 | 2.03 | > 100 | 5.36 | 15.7 | 18.6 | 1.05 | 1.2 | 15.6 | 2.5 | – | – | – | – | – | –
3 | C=C[C@@H](O)[C@@H]1OC(=O)C[C@@H]1OC | 5.36 | 2.74 | > 100 | 11.9 | 18.6 | 19.6 | 9.2 | 4.52 | 7.17 | – | – | – | – | – | – | –
4 | O=C1C[C@@H](O)[C@@H]([C@@H](O)[C@@H](O)CO)O1 | 20.3 | 16.5 | > 100 | 19.6 | 24.4 | 23.6 | 19.5 | 12.9 | 19.3 | – | – | – | – | – | – | –
5 | CO[C@H]1CC(=O)O[C@H]1[C@H](OC(C)=O)[C@@H](COC(=O)c1ccccc1)OC(C)=O | 24.2 | 16.2 | 87.9 | 13.2 | 27.7 | 21.4 | 29.4 | 23.8 | 19.4 | – | > 100 | > 100 | 85% | > 1000 | > 100 | > 1000
6 | C=C[C@H](OCc1ccccc1)[C@H]1OC(=O)C[C@H]1OC | 11.6 | 7.59 | > 100 | 12.6 | 34.4 | 27.9 | 5.67 | 11.5 | 12.7 | – | – | – | – | – | – | –
7 | C=C[C@H](O)[C@H]1OC(=O)C[C@H]1OC | 12.8 | 8.05 | > 100 | 11.8 | 32.9 | 28.3 | 4.23 | 10.9 | 11.7 | – | > 100 | > 100 | inactive | > 1000 | > 100 | > 1000
8 | CO[C@@H]1CC(=O)O[C@@H]1[C@H]1OC(=O)O[C@H]1COC(=O)c1ccccc1 | 16 | 10 | > 100 | 25.8 | 21.3 | 13.4 | 4.31 | 7.03 | 10.6 | – | – | – | 51% | – | – | –
9 | O=C1C[C@@H]2O[C@@H](CI)[C@@H](O)[C@@H]2O1 | 22.8 | 15.1 | > 100 | 17.7 | 26.2 | 24.6 | 19.4 | 20.1 | 16.7 | – | > 100 | > 100 | inactive | > 1000 | > 100 | > 1000
10 | CO[C@H]1CC(=O)O[C@H]1[C@H](OC(C)=O)[C@H](COC(=O)c1ccccc1)OC(C)=O | 14 | 8.23 | > 100 | 16.1 | 11.2 | 8.32 | 5.21 | 7.02 | 21 | – | – | – | – | – | – | –
11 | CO[C@@H]1CC(=O)O[C@@H]1[C@@H](OC(C)=O)[C@H](COC(=O)c1ccccc1)OC(C)=O | 26.3 | 12 | 94.8 | 21.7 | 22.3 | 25.4 | 5.4 | 2.45 | 11 | – | > 100 | > 100 | 35% | > 1000 | > 100 | > 1000
12 | CO[C@@H]1CC(=O)O[C@@H]1[C@@H](OC(=O)c1ccccc1)[C@H](COC(=O)c1ccccc1)OC(=O)c1ccccc1 | 15.9 | 3.36 | > 100 | 13.5 | 14.1 | 14.1 | 13.2 | 15.3 | 8.58 | – | > 100 | > 100 | 40% | > 1000 | > 100 | > 1000
